{
  "source": "the supplement of paper PMC11208160",
  "data": [
    {"assay": "recombinant UMI read abundance after kanamycin selection (control-corrected) (log10(CPM+1)); higher = more efficient recombination; extreme values may be limits of the assay; sequences stand for … in AGTGCAGAGAAAATCGGCCAGTTTTCTCTGCCTGCAGTCCGCATGCCGTGGGACCCCTTGGGTTCTAACCTGTTGCCTAGATTTATGCAGCGGACTGCCTTTCTCCCAAAGTGATAAACCGG…AGGTTGGTTTCACT; site = the 11-nt donor", "method_in_brief": "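The measure is log10(CPM+1) for recombinant UMIs. These were PCR-amplified across the donor–target junction and sequenced after Escherichia coli carrying a donor and donor-binding-loop pair library and a target plasmid with T7-inducible IS621 bridge recombinase was plated on IPTG (0.07 mM) plus kanamycin or unselected. CPM were averaged over two replicates and scaled by control-derived factors.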", "values": [
      {"sequence": "CGTTAGTCATGGACCGGTTTTCCCGGTAATCCGTATTTGAG (site CGTTAGGCTCT)", "recombinant UMI read abundance (log10)": 0.0227},
      {"sequence": "CGTTAGTCATGGACCGGTTTTCCCGGTAATCCGTATTTGAG (site CGTTAGTCTCT)", "recombinant UMI read abundance (log10)": 2.05},
      {"sequence": "CGTTCACCATGGACCGGTTTTCCCGGTAATCCGTATTTGCT (site CGATCATCTAG)", "recombinant UMI read abundance (log10)": 0},
      {"sequence": "CGTTCACCATGGACCGGTTTTCCCGGTAATCCGTATTTGCT (site CGTTCACCTAG)", "recombinant UMI read abundance (log10)": 0.00366},
      {"sequence": "CGTTCATCATGGACCGGTTTTCCCGGTAATCCGTATTTGAT (site CGATCATCTAG)", "recombinant UMI read abundance (log10)": 0},
      {"sequence": "CGTTCATCATGGACCGGTTTTCCCGGTAATCCGTATTTGAT (site CGTTCATCTAT)", "recombinant UMI read abundance (log10)": 0},
      {"sequence": "CGTTCGACATGGACCGGTTTTCCCGGTAATCCGTATTTGAG (site CGTTAGACTCT)", "recombinant UMI read abundance (log10)": 0.0143},
      {"sequence": "CGTTCGACATGGACCGGTTTTCCCGGTAATCCGTATTTGAG (site CGTTCGACTCT)", "recombinant UMI read abundance (log10)": 0.635},
      {"sequence": "CGTTCGACATGGACCGGTTTTCCCGGTAATCCGTATTTGAG (site CGTTGGACTCT)", "recombinant UMI read abundance (log10)": 0.0108},
      {"sequence": "CGTTCGACATGGACCGGTTTTCCCGGTAATCCGTATTTGAG (site CGTTTGACTCT)", "recombinant UMI read abundance (log10)": 0.0134},
      {"sequence": "CGTTGAACATGGACCGGTTTTCCCGGTAATCCGTATTTGGA (site CGTTGAACTTC)", "recombinant UMI read abundance (log10)": 0.945},
      {"sequence": "CGTTGAGCATGGACCGGTTTTCCCGGTAATCCGTATTTGCG (site CGTTGAGCTCG)", "recombinant UMI read abundance (log10)": 1.2},
      {"sequence": "CGTTGGGCATGGACCGGTTTTCCCGGTAATCCGTATTTGCT (site CGTTAGGCTAG)", "recombinant UMI read abundance (log10)": 0.41},
      {"sequence": "CGTTGGGCATGGACCGGTTTTCCCGGTAATCCGTATTTGCT (site CGTTCGGCTAG)", "recombinant UMI read abundance (log10)": 0},
      {"sequence": "CGTTGGGCATGGACCGGTTTTCCCGGTAATCCGTATTTGCT (site CGTTGGGCTAG)", "recombinant UMI read abundance (log10)": 1.65},
      {"sequence": "CGTTGGGCATGGACCGGTTTTCCCGGTAATCCGTATTTGCT (site CGTTTGGCTAG)", "recombinant UMI read abundance (log10)": 0},
      {"sequence": "CGTTGTCCATGGACCGGTTTTCCCGGTAATCCGTATTTGAA (site CGTTGTCCTTT)", "recombinant UMI read abundance (log10)": 0.00747},
      {"sequence": "CGTTGTCCATGGACCGGTTTTCCCGGTAATCCGTATTTGTA (site CGTTGTCCTTA)", "recombinant UMI read abundance (log10)": 0.0342},
      {"sequence": "CGTTTAACATGGACCGGTTTTCCCGGTAATCCGTATTTGGC (site CGTTTAACTGC)", "recombinant UMI read abundance (log10)": 0.793},
      {"sequence": "CGTTTAGCATGGACCGGTTTTCCCGGTAATCCGTATTTGCT (site CGTTTAGCTAG)", "recombinant UMI read abundance (log10)": 0},
      {"sequence": "CGTTTAGCATGGACCGGTTTTCCCGGTAATCCGTATTTGCT (site CGTTTCGCTAG)", "recombinant UMI read abundance (log10)": 0},
      {"sequence": "CGTTTAGCATGGACCGGTTTTCCCGGTAATCCGTATTTGCT (site CGTTTGGCTAG)", "recombinant UMI read abundance (log10)": 0},
      {"sequence": "CGTTTAGCATGGACCGGTTTTCCCGGTAATCCGTATTTGCT (site CGTTTTGCTAG)", "recombinant UMI read abundance (log10)": 0},
      {"sequence": "CGTTTGACATGGACCGGTTTTCCCGGTAATCCGTATTTGCT (site CGTTTGACTAG)", "recombinant UMI read abundance (log10)": 2.38},
      {"sequence": "CGTTTGACATGGACCGGTTTTCCCGGTAATCCGTATTTGCT (site CGTTTGCCTAG)", "recombinant UMI read abundance (log10)": 0},
      {"sequence": "CGTTTGACATGGACCGGTTTTCCCGGTAATCCGTATTTGCT (site CGTTTGGCTAG)", "recombinant UMI read abundance (log10)": 1.12},
      {"sequence": "CGTTTGACATGGACCGGTTTTCCCGGTAATCCGTATTTGCT (site CGTTTGTCTAG)", "recombinant UMI read abundance (log10)": 0},
      {"sequence": "CGTTTGCCATGGACCGGTTTTCCCGGTAATCCGTATTTGCT (site CGTTTGACTAG)", "recombinant UMI read abundance (log10)": 0},
      {"sequence": "CGTTTGCCATGGACCGGTTTTCCCGGTAATCCGTATTTGCT (site CGTTTGCCTAG)", "recombinant UMI read abundance (log10)": 0.79},
      {"sequence": "CGTTTGCCATGGACCGGTTTTCCCGGTAATCCGTATTTGCT (site CGTTTGGCTAG)", "recombinant UMI read abundance (log10)": 0.00559},
      {"sequence": "CGTTTGCCATGGACCGGTTTTCCCGGTAATCCGTATTTGCT (site CGTTTGTCTAG)", "recombinant UMI read abundance (log10)": 0},
      {"sequence": "CGTTTGGCATGGACCGGTTTTCCCGGTAATCCGTATTTGCG (site CGTTTGGCTAG)", "recombinant UMI read abundance (log10)": 0},
      {"sequence": "CGTTTGGCATGGACCGGTTTTCCCGGTAATCCGTATTTGCG (site CGTTTGGCTCG)", "recombinant UMI read abundance (log10)": 0.142},
      {"sequence": "CGTTTGGCATGGACCGGTTTTCCCGGTAATCCGTATTTGCG (site CGTTTGGCTGG)", "recombinant UMI read abundance (log10)": 0},
      {"sequence": "CGTTTGGCATGGACCGGTTTTCCCGGTAATCCGTATTTGCG (site CGTTTGGCTTG)", "recombinant UMI read abundance (log10)": 0},
      {"sequence": "CGTTTGGCATGGACCGGTTTTCCCGGTAATCCGTATTTGCT (site AGTTTGGCTAG)", "recombinant UMI read abundance (log10)": 0},
      {"sequence": "CGTTTGGCATGGACCGGTTTTCCCGGTAATCCGTATTTGCT (site CATTTGGCTAG)", "recombinant UMI read abundance (log10)": 0},
      {"sequence": "CGTTTGGCATGGACCGGTTTTCCCGGTAATCCGTATTTGCT (site CCTTTGGCTAG)", "recombinant UMI read abundance (log10)": 0},
      {"sequence": "CGTTTGGCATGGACCGGTTTTCCCGGTAATCCGTATTTGCT (site CGATTGGCTAG)", "recombinant UMI read abundance (log10)": 0},
      {"sequence": "CGTTTGGCATGGACCGGTTTTCCCGGTAATCCGTATTTGCT (site CGCTTGGCTAG)", "recombinant UMI read abundance (log10)": 0},
      {"sequence": "CGTTTGGCATGGACCGGTTTTCCCGGTAATCCGTATTTGCT (site CGGTTGGCTAG)", "recombinant UMI read abundance (log10)": 0},
      {"sequence": "CGTTTGGCATGGACCGGTTTTCCCGGTAATCCGTATTTGCT (site CGTATGGCTAG)", "recombinant UMI read abundance (log10)": 0.00345},
      {"sequence": "CGTTTGGCATGGACCGGTTTTCCCGGTAATCCGTATTTGCT (site CGTCTGGCTAG)", "recombinant UMI read abundance (log10)": 0.00793},
      {"sequence": "CGTTTGGCATGGACCGGTTTTCCCGGTAATCCGTATTTGCT (site CGTGTGGCTAG)", "recombinant UMI read abundance (log10)": 0.00452},
      {"sequence": "CGTTTGGCATGGACCGGTTTTCCCGGTAATCCGTATTTGCT (site CGTTAGGCTAG)", "recombinant UMI read abundance (log10)": 0},
      {"sequence": "CGTTTGGCATGGACCGGTTTTCCCGGTAATCCGTATTTGCT (site CGTTCGGCTAG)", "recombinant UMI read abundance (log10)": 0.0122},
      {"sequence": "CGTTTGGCATGGACCGGTTTTCCCGGTAATCCGTATTTGCT (site CGTTGGGCTAG)", "recombinant UMI read abundance (log10)": 0},
      {"sequence": "CGTTTGGCATGGACCGGTTTTCCCGGTAATCCGTATTTGCT (site CGTTTAGCTAG)", "recombinant UMI read abundance (log10)": 0},
      {"sequence": "CGTTTGGCATGGACCGGTTTTCCCGGTAATCCGTATTTGCT (site CGTTTCGCTAG)", "recombinant UMI read abundance (log10)": 0},
      {"sequence": "CGTTTGGCATGGACCGGTTTTCCCGGTAATCCGTATTTGCT (site CGTTTGACTAG)", "recombinant UMI read abundance (log10)": 0},
      {"sequence": "CGTTTGGCATGGACCGGTTTTCCCGGTAATCCGTATTTGCT (site CGTTTGCCTAG)", "recombinant UMI read abundance (log10)": 0},
      {"sequence": "CGTTTGGCATGGACCGGTTTTCCCGGTAATCCGTATTTGCT (site CGTTTGGCTAA)", "recombinant UMI read abundance (log10)": 0.00833},
      {"sequence": "CGTTTGGCATGGACCGGTTTTCCCGGTAATCCGTATTTGCT (site CGTTTGGCTAC)", "recombinant UMI read abundance (log10)": 0.00533},
      {"sequence": "CGTTTGGCATGGACCGGTTTTCCCGGTAATCCGTATTTGCT (site CGTTTGGCTAG)", "recombinant UMI read abundance (log10)": 0},
      {"sequence": "CGTTTGGCATGGACCGGTTTTCCCGGTAATCCGTATTTGCT (site CGTTTGGCTAT)", "recombinant UMI read abundance (log10)": 0.00603},
      {"sequence": "CGTTTGGCATGGACCGGTTTTCCCGGTAATCCGTATTTGCT (site CGTTTGGCTCG)", "recombinant UMI read abundance (log10)": 0.00605},
      {"sequence": "CGTTTGGCATGGACCGGTTTTCCCGGTAATCCGTATTTGCT (site CGTTTGGCTGG)", "recombinant UMI read abundance (log10)": 0},
      {"sequence": "CGTTTGGCATGGACCGGTTTTCCCGGTAATCCGTATTTGCT (site CGTTTGGCTTG)", "recombinant UMI read abundance (log10)": 0},
      {"sequence": "CGTTTGGCATGGACCGGTTTTCCCGGTAATCCGTATTTGCT (site CGTTTGTCTAG)", "recombinant UMI read abundance (log10)": 0},
      {"sequence": "CGTTTGGCATGGACCGGTTTTCCCGGTAATCCGTATTTGCT (site CGTTTTGCTAG)", "recombinant UMI read abundance (log10)": 0},
      {"sequence": "CGTTTGGCATGGACCGGTTTTCCCGGTAATCCGTATTTGCT (site CTTTTGGCTAG)", "recombinant UMI read abundance (log10)": 0},
      {"sequence": "CGTTTGGCATGGACCGGTTTTCCCGGTAATCCGTATTTGCT (site GGTTTGGCTAG)", "recombinant UMI read abundance (log10)": 0},
      {"sequence": "CGTTTGGCATGGACCGGTTTTCCCGGTAATCCGTATTTGCT (site TGTTTGGCTAG)", "recombinant UMI read abundance (log10)": 0.00607},
      {"sequence": "CTAAATGCATGGACCGGTTTTCCCGGTAATCCGTATTTGAG (site CTAAATGCTCT)", "recombinant UMI read abundance (log10)": 2.87},
      {"sequence": "CTAAGCACATGGACCGGTTTTCCCGGTAATCCGTATTTGCT (site CTAAGCACTAG)", "recombinant UMI read abundance (log10)": 1.9},
      {"sequence": "CTAAGCCCATGGACCGGTTTTCCCGGTAATCCGTATTTGAA (site CTAAGCCCTTT)", "recombinant UMI read abundance (log10)": 1.25},
      {"sequence": "CTAAGCGCATGGACCGGTTTTCCCGGTAATCCGTATTTGAA (site CTAAGCGCTTT)", "recombinant UMI read abundance (log10)": 2.02},
      {"sequence": "CTAAGTCCATGGACCGGTTTTCCCGGTAATCCGTATTTGGA (site CTAAGTCCTTC)", "recombinant UMI read abundance (log10)": 0.16}
    ]}
  ]
}
